Assay results taken from article PMC4424350, “Unraveling the Specific Regulation of the Central Pathway for Anaerobic Degradation of 3-Methylbenzoate” (The Journal of Biological Chemistry, 2015).

Target: T1, MbdR (MbdR-His6) (Azoarcus sp., UniProt Z9KMW0QJC7)
T1 construct: full-length, C-terminal His6 (pETmbdR), expressed in E. coli BL21(DE3), Ni-NTA; dimer in solution
Experiment: gel retardation (release of promoter DNA); DNase I footprinting; in vitro transcription
Type: binding
Settings: inducer; 30 nM MbdR-His6 with PO or PB1 DNA probe, 20 mM Tris-HCl pH 7.5, 50 mM KCl, 30 °C

Cc1cccc(C(=O)SCCNC(=O)CCNC(=O)[C@H](O)C(C)(C)COP(=O)(O)OP(=O)(O)OC[C@H]2O[C@@H](n3cnc4c(N)ncnc43)[C@H](O)[C@@H]2OP(=O)(O)O)c1 [3-methylbenzoyl-CoA]
gel retardation (release of promoter DNA); DNase I footprinting; in vitro transc: 3-methylbenzoyl-CoA inhibited the interaction of MbdR with the PO and PB1 probes
